Marks after values point to notes of the source that are not given here.
How the values were obtained:
[1] = test system: ovariectomized rats; set-up: species or system Sprague Dawley rats; conditions: rat, in vivo, po, 0.1 mg/kg/day
Description: (§1) In the examples illustrating the methods, a postmenopausal model was used in which effects of different treatments upon circulating lipids were determined.
(§2) Seventy-five day old female Sprague Dawley rats (weight range of 200 to 225g) were obtained from Charles River Laboratories (Portage, MI). The animals were either bilaterally ovariectomized (OVX) or exposed to a Sham surgical procedure at Charles River Laboratories, and then shipped after one week. Upon arrival, they were housed in metal hanging cages in groups of 3 or 4 per cage and had ad libitum access to food (calcium content approximately 0.5%) and water for one week. Room temperature was maintained at 22.2° ± 1.7° C with a minimum relative humidity of 40%. The photoperiod in the room was 12 hours light and 12 hours dark.
Dosing Regimen Tissue Collection. After a one week acclimation period (therefore, two weeks post-OVX) daily dosing with test compound was initiated. 17α-ethynyl estradiol or the test compound were given orally, unless otherwise stated, as a suspension in 1% carboxymethylcellulose or dissolved in 20% cyclodextrin. Animals were dosed daily for 4 days. […] The animals were then sacrificed by asphyxiation with CO2, the uterus was removed through a midline incision, and a wet uterine weight was determined.

[2] = test system: ovariectomized rats; test: Serum cholesterol analysis in ovariectomized rats; assay type: in vivo, Sprague Dawley rats; conditions: for Serum Cholest. % Decrease: daily for 4 days, versus ovariectomized controls
Description: as §1, §2
Dosing Regimen Tissue Collection. After a one week acclimation period (therefore, two weeks post-OVX) daily dosing with test compound was initiated. 17α-ethynyl estradiol or the test compound were given orally, unless otherwise stated, as a suspension in 1% carboxymethylcellulose or dissolved in 20% cyclodextrin. Animals were dosed daily for 4 days. Following the dosing regimen, animals were weighed and anesthetized with a ketamine: xylazine (2:1, V:V) mixture and a blood sample was collected by cardiac puncture. The animals were then sacrificed by asphyxiation with CO2, the uterus was removed through a midline incision, and a wet uterine weight was determined.
Cholesterol Analysis. Blood samples were allowed to clot at room temperature for 2 hours, and serum was obtained following centrifugation for 10 minutes at 3000 rpm. Serum cholesterol was determined using a Boehringer Mannheim Diagnostics high performance cholesterol assay. Briefly the cholesterol was oxidized to cholest-4-en-3-one and hydrogen peroxide. The hydrogen peroxide was then reacted with phenol and 4-aminophenazone in the presence of peroxidase to produce a p-quinone imine dye, which was read spectrophotemetrically at 500 nm. Cholesterol concentration was then calculated against a standard curve.

[3] = test system: Eosinophil peroxidase; set-up: species or system Sprague Dawley rats; conditions: rat, in vivo
Description: as §2
Dosing Regimen Tissue Collection. After a one week acclimation period (therefore, two weeks post-OVX) daily dosing with test compound was initiated. […] The animals were then sacrificed by asphyxiation with CO2, the uterus was removed through a midline incision, and a wet uterine weight was determined.
Uterine Eosinophil Peroxidase (EPO) Assay. […] Upon addition of 0.01% hydrogen peroxide and 10 mM O-phenylenediamine (final concentrations) in Tris buffer, increase in absorbance was monitored for one minute at 450 nm. […] The maximal velocity of a 15 second interval was determined over the initial, linear portion of the reaction curve.

[4] = test system: MCF-7 breast adenocarcinoma cells; test: MCF-7 Proliferation Assay (tritiated thymidine uptake); assay type: cell-based; conditions: Homo sapiens, MCF7; MCF-7 cells, 48 hours with drug, tritiated thymidine pulse 4 hours
Description: MCF-7 breast adenocarcinoma cells (ATCC HTB 22) were maintained in MEM (minimal essential medium, phenol red-free, Sigma, St. Louis, MO) supplimented with 10% fetal bovine serum (FBS) (V/V), L-glutamine (2 mM), sodium pyruvate (1 mM), HEPES {(N-[2-hydroxyethyl]piperazine-N'-[2-ethanesulfonic acid]10 mM}, non-essential amino acids and bovine insulin (1 µg/mL) (maintenance medium). Ten days prior to assay, MCF-7 cells were switched to maintenance medium supplemented with 10% dextran coated charcoal stripped fetal bovine serum (DCC-FBS) assay medium) in place of 10% FBS to deplete internal stores of steroids. MCF-7 cells were removed from maintenance flasks using cell dissociation medium (Ca++/Mg++ free HBSS (phenol red-free) supplemented with 10 mM HEPES and 2 mM EDTA). Cells were washed twice with assay medium and adjusted to 80,000 cells/mL. Approximately […] (8,000 cells) were added to flat-bottom microculture wells (Costar 3596) and incubated at 37° C in a 5% CO2 humidified incubator for 48 hours to allow for cell adherence and equilibration after transfer. Serial dilutions of drugs or DMSO as a diluent control were prepared in assay medium and […] to triplicate microcultures […]. […] Samples were counted by liquid scintillation using a Wallace BetaPlace β counter.

| Uterine Eosinophil (Vmax) [3] | EC50 [4] | Compound | uterine weight (result in words) [1] | Serum Cholest. % Decrease ([2]; 0.1 mg/kg PO) | serum cholesterol (result in words) ([2]; compared to ovariectomized control animals, EE2 orally at 0.1 mg/kg/day) | eosinophil infiltration into the uterus (result in words) [3] | Serum Cholest. % Decrease ([2]; 1 mg/kg PO) | Serum Cholest. % Decrease ([2]; 10 mg/kg PO) |
| --- | --- | --- | --- | --- | --- | --- | --- | --- |
| 357.3* |  | C#C[C@]1(O)CC[C@H]2[C@@H]3CCc4cc(O)ccc4[C@H]3CC[C@@]21C [EE2, 17α-ethynyl estradiol, reference compound] | substantially greater than the uterine weight of ovariectomized test animals | 95.2* % | caused a decrease in serum cholesterol | substantial, expected increase in eosinophil infiltration |  |  |
|  | 100 nM | Oc1ccc2c(c1)S[C@H]1c3ccccc3[C@@H](c3ccc(OCCN4CCCCC4)cc3)[C@@H]21 [Example 3] |  | 12.0% |  |  | 35.7* % | 65.0* % |
